These results are taken from patent US20140256756A1, “PIPERIDINYL-SUBSTITUTED LACTAMS AS GPR119 MODULATORS” (Array BioPharma Inc., priority 2011, published 2014).

This experiment deals with modified version of the GPR119 receptor (94% identity to human receptor). In words: cAMP production assay (LANCE cAMP kit, TR-FRET) in HEK-293 cells. The format is cell-based. The note with it: for cAMP production in HEK-293 cells: HEK-293 cells stably expressing modified GPR119, test compounds 0.2 nM to 10 μM, one-hour incubation; for Fold over baseline: increase in cAMP relative to basal levels, agonist activity if 1.5-fold or greater. In a few lines: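 Doxycycline-induced HEK-293 cells expressing modified GPR119 exposed to compounds (0.2 nM to 10 μM, 0.5% DMSO) for one hour at ambient temperature in HBSS with HEPES and BSA. cAMP measured by TR-FRET competition and interpolated from a standard curve; agonism defined as ≥1.5-fold over basal.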
In general terms: Cyclic AMP is a second messenger, typically raised through Gs and lowered through Gi signalling.

For `CCS(=O)(=O)c1ccc(OC2CCN(C3CCN(c4nc(-c5ccccc5)ns4)CC3)C2=O)c(F)c1` (stereo not drawn) [Example 67, 3-(4-(ethylsulfonyl)-2-fluorophenoxy)-1-(1-(3-phenyl-1,2,4-thiadiazol-5-yl)piperidin-4-yl)pyrrolidin-2-one], the “cAMP production in HEK-293 cells” value came out at 14.0 nmol and the Fold over baseline is given as 2.3.
The like results for `CCS(=O)(=O)c1ccc(OC2CCN(C3CCN(c4nc(CC(C)C)ns4)CC3)C2=O)c(F)c1` (stereo not drawn) [Example 68, 3-(4-(ethylsulfonyl)-2-fluorophenoxy)-1-(1-(3-isobutyl-1,2,4-thiadiazol-5-yl)piperidin-4-yl)pyrrolidin-2-one] were, in that order, 14.5 nmol and 3.1.
Consider `CS(=O)(=O)c1ccc(O[C@H]2CCN(C3CCN(c4nc(Br)ns4)CC3)C2=O)c(F)c1` [Example 69, (S)-1-(1-(3-bromo-1,2,4-thiadiazol-5-yl)piperidin-4-yl)-3-(2-fluoro-4-(methylsulfonyl)phenoxy)pyrrolidin-2-one], for which the “cAMP production in HEK-293 cells” value stood at 10.6 nmol and the Fold over baseline is 2.1.
Taken in the same sequence, the figures for `CS(=O)(=O)c1ccc(O[C@H]2CCN(C3CCN(c4nc(-c5cnco5)ns4)CC3)C2=O)c(F)c1` [Example 70, (S)-3-(2-fluoro-4-(methylsulfonyl)phenoxy)-1-(1-(3-(oxazol-5-yl)-1,2,4-thiadiazol-5-yl)piperidin-4-yl)pyrrolidin-2-one] were 11.4 nmol and 3.1.
Consider `Cc1ncccc1-c1nsc(N2CCC(N3CC[C@H](Oc4ccc(S(C)(=O)=O)cc4F)C3=O)CC2)n1` [Example 71, (S)-3-(2-fluoro-4-(methylsulfonyl)phenoxy)-1-(1-(3-(2-methylpyridin-3-yl)-1,2,4-thiadiazol-5-yl)piperidin-4-yl)pyrrolidin-2-one], for which the “cAMP production in HEK-293 cells” value was 5.9 nmol and the Fold over baseline is 2.1.
In the case of `Cn1nccc1-c1nsc(N2CCC(N3CC[C@H](Oc4ccc(S(C)(=O)=O)cc4F)C3=O)CC2)n1` [Example 72, (S)-3-(2-fluoro-4-(methylsulfonyl)phenoxy)-1-(1-(3-(1-methyl-1H-pyrazol-5-yl)-1,2,4-thiadiazol-5-yl)piperidin-4-yl)pyrrolidin-2-one], the “cAMP production in HEK-293 cells” value was found to be 10.6 nmol and the Fold over baseline amounted to 2.9.
The like results for `Cn1cc(-c2nsc(N3CCC(N4CC[C@H](Oc5ccc(S(C)(=O)=O)cc5F)C4=O)CC3)n2)cn1` [Example 73, (S)-3-(2-fluoro-4-(methylsulfonyl)phenoxy)-1-(1-(3-(1-methyl-1H-pyrazol-4-yl)-1,2,4-thiadiazol-5-yl)piperidin-4-yl)pyrrolidin-2-one] were, in that order, 6.2 nmol and 2.2.
The like results for `CS(=O)(=O)c1ccc(O[C@H]2CCN(C3CCN(c4nc(Oc5ccccc5)ns4)CC3)C2=O)c(F)c1` [Example 74, (S)-3-(2-fluoro-4-(methylsulfonyl)phenoxy)-1-(1-(3-phenoxy-1,2,4-thiadiazol-5-yl)piperidin-4-yl)pyrrolidin-2-one] were, in that order, 15.3 nmol and 4.2.
With `Cc1nn(C)c(Oc2nsc(N3CCC(N4CC[C@H](Oc5ccc(S(C)(=O)=O)cc5F)C4=O)CC3)n2)c1C` [Example 75, (S)-3-(2-fluoro-4-(methylsulfonyl)phenoxy)-1-(1-(3-(1,3,4-trimethyl-1H-pyrazol-5-yloxy)-1,2,4-thiadiazol-5-yl)piperidin-4-yl)pyrrolidin-2-one], the “cAMP production in HEK-293 cells” value amounted to 6.9 nmol and the Fold over baseline is 2.7.
As to `Cc1ncccc1Oc1nsc(N2CCC(N3CC[C@H](Oc4ccc(S(C)(=O)=O)cc4F)C3=O)CC2)n1` [Example 76, (S)-3-(2-fluoro-4-(methylsulfonyl)phenoxy)-1-(1-(3-(2-methylpyridin-3-yloxy)-1,2,4-thiadiazol-5-yl)piperidin-4-yl)pyrrolidin-2-one], the “cAMP production in HEK-293 cells” value is 5.7 nmol and the Fold over baseline is recorded as 2.5.
Taken in the same sequence, the figures for `CC(C)c1nsc(N2CCC(N3CCC(Oc4ccc(C(=O)NCCO)cc4F)C3=O)CC2)n1.Cl` (stereo not drawn) [Example 77, 3-Fluoro-N-(2-hydroxyethyl)-4-(1-(1-(3-isopropyl-1,2,4-thiadiazol-5-yl)piperidin-4-yl)-2-oxopyrrolidin-3-yloxy)benzamide hydrochloride] were 15.1 nmol and 2.8.
As for `CC(C)c1nsc(N2CCC(N3CCC(Oc4ccc(C(=O)N(C)CCN(C)C)cc4F)C3=O)CC2)n1` (stereo not drawn) [Example 78, N-(2-(dimethylamino)ethyl)-3-fluoro-4-(1-(1-(3-isopropyl-1,2,4-thiadiazol-5-yl)piperidin-4-yl)-2-oxopyrrolidin-3-yloxy)-N-methylbenzamide], the “cAMP production in HEK-293 cells” value was 5.0 nmol and the Fold over baseline was determined as 1.6.
Taken in the same sequence, the figures for `CC(C)c1nsc(N2CCC(N3CCC(Oc4ccc(C(=O)N(C)CCO)cc4F)C3=O)CC2)n1` (stereo not drawn) [Example 79, 3-fluoro-N-(2-hydroxyethyl)-4-(1-(1-(3 isopropyl-1,2,4-thiadiazol-5-yl)piperidin-4-yl)-2-oxopyrrolidin-3-yloxy)-N-methylbenzamide] were 19.0 nmol and 3.2.
The like results for `CC(C)c1nsc(N2CCC(N3CCC(Oc4ccc(C(=O)N(C)CCN)cc4F)C3=O)CC2)n1` (stereo not drawn) [Example 80, N-(2-aminoethyl)-3-fluoro-4-(1-(1-(3-isopropyl-1,2,4-thiadiazol-5-yl)piperidin-4-yl)-2-oxopyrrolidin-3-yloxy)-N-methylbenzamide] were, in that order, 16.1 nmol and 2.8.
Taken in the same sequence, the figures for `CC(C)c1nsc(N2CCC(N3CCC(Oc4ccc(C(=O)NCCN(C)C)cc4F)C3=O)CC2)n1` (stereo not drawn) [Example 81, N-(2-(dimethylamino)ethyl)-3 fluoro-4-(1-(1-(3-isopropyl-1,2,4-thiadiazol-5-yl)piperidin-4-yl)-2-oxopyrrolidin-3-yloxy)benzamide] were 11.7 nmol and 2.4.
As to `CC(C)c1nsc(N2CCC(N3CCC(Oc4ccc(-n5cnnn5)nc4)C3=O)CC2)n1` (stereo not drawn) [Example 82, 3-(6-(1H-tetrazol-1-yl)pyridin-3-yloxy)-1-(1-(3-isopropyl-1,2,4-thiadiazol-5-yl)piperidin-4-yl)pyrrolidin-2-one], the “cAMP production in HEK-293 cells” value worked out at 12.8 nmol and the Fold over baseline stood at 2.4.
Taken in the same sequence, the figures for `CC(C)c1nsc(N2CCC(N3CCC(Oc4ccc(-c5nnn(C)n5)cc4)C3=O)CC2)n1` (stereo not drawn) [Example 83, 1-(1-(3-isopropyl-1,2,4-thiadiazol-5-yl)piperidin-4-yl)-3-(4-(2-methyl-2H-tetrazol-5-yl)phenoxy)pyrrolidin-2-one] were 14.9 nmol and 2.5.
Taken in the same sequence, the figures for `CC(C)c1nsc(N2CCC(N3CCC(Oc4ccc(-n5cnnn5)cc4)C3=O)CC2)n1` (stereo not drawn) [Example 84, 3-(4-(1H-tetrazol-1-yl)phenoxy)-1-(1-(3-isopropyl-1,2,4-thiadiazol-5-yl)piperidin-4-yl)pyrrolidin-2-one] were 18.8 nmol and 4.2.
